Measurements reported in patent publication US10087187B2, “Imidazopyridazine derivatives as PI3KB inhibitors” (Janssen Pharmaceutica NV, priority 2014, dated 2018).
Like-named read-outs stand apart in the source and are kept apart here.

Assays:
PIK3Cα_h = PIK3Cα_h (Homo sapiens (Human), UniProt P42336); assay: KINOMEscan enzyme binding assay, PIK3Cα; details: DiscoveRx
Experimental: (§1) Enzyme Binding Assays (KINOMEscan®) Kinase enzyme binding affinities of compounds disclosed herein were determined using the KINOMEscan technology performed by DiscoveRx Corporation, San Diego, Calif., USA (www.kinomescan.com).

PIK3Cβ_h = PIK3Cβ_h (Homo sapiens (Human), UniProt P42338); assay: KINOMEscan enzyme binding assay, PIK3Cβ; details: DiscoveRx
Sequence of PIK3Cβ_h (P42338 whole entry): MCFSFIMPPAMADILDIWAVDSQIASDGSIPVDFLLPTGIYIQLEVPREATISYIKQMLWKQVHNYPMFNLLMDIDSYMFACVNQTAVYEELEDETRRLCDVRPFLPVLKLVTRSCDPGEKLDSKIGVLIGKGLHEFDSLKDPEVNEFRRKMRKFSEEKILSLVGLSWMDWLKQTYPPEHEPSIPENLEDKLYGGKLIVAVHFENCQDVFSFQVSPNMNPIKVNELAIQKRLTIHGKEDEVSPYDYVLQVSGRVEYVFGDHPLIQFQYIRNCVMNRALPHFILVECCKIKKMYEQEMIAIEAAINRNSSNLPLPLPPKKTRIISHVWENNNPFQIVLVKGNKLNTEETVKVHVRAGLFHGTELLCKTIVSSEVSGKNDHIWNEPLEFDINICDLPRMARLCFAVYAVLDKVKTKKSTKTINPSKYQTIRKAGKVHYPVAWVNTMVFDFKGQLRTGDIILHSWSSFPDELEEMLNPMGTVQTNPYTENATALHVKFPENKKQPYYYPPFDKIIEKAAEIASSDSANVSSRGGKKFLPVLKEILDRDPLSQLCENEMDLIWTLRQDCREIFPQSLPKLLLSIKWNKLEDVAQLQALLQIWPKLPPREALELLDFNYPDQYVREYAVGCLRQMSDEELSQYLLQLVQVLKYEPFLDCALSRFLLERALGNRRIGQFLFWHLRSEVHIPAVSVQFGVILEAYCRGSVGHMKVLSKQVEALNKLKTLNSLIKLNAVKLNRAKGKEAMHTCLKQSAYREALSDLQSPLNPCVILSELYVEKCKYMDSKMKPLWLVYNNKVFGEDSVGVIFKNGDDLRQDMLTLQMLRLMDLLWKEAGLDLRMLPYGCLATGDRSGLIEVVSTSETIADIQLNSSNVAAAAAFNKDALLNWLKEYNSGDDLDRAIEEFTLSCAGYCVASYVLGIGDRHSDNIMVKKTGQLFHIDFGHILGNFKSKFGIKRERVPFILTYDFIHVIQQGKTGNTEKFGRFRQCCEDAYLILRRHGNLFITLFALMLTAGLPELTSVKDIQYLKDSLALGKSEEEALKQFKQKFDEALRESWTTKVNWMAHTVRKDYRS
Experimental: as §1, with “(www.kinomescan.com). Table A reports the obtained Kd values (nM), with the Kd being the inhibitor binding constant: […]” for “(www.kinomescan.com).”

PIK3Cδ_h = PIK3Cδ_h (Homo sapiens (Human), UniProt O00329); assay: KINOMEscan enzyme binding assay, PIK3Cδ; details: DiscoveRx
Sequence of PIK3Cδ_h (O00329 whole entry): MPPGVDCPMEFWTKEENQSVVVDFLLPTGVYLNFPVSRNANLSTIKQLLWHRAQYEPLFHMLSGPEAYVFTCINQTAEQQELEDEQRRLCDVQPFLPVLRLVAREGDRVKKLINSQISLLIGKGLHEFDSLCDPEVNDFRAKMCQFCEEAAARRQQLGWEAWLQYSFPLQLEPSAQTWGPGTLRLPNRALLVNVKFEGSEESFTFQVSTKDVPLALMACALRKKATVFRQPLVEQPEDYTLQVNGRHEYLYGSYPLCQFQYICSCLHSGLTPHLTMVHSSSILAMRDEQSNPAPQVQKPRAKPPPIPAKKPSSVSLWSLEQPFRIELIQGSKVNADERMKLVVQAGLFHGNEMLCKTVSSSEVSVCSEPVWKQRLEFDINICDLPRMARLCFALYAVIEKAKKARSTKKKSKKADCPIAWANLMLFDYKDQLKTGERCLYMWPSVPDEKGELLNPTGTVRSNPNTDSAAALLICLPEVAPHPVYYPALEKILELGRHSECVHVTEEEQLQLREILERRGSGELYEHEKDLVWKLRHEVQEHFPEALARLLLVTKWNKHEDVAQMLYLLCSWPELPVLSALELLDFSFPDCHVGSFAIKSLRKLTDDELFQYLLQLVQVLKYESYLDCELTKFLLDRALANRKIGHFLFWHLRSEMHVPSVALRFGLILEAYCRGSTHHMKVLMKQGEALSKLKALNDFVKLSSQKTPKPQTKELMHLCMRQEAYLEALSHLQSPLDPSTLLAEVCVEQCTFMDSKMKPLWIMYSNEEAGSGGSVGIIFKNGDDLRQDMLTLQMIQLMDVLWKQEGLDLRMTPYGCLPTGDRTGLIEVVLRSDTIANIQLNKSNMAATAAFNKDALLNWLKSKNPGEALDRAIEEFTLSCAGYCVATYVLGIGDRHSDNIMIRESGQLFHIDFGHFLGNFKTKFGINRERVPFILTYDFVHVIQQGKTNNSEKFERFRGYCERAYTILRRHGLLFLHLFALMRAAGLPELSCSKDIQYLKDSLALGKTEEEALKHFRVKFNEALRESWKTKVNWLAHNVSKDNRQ
Experimental: as §1, with “(www.kinomescan.com). Table A reports the obtained Kd values (nM), with the Kd being the inhibitor binding constant: […]” for “(www.kinomescan.com).”

PIK3Cγ_h = PIK3Cγ_h (Homo sapiens (Human), UniProt P48736); assay: KINOMEscan enzyme binding assay, PIK3Cγ; details: DiscoveRx
Sequence of PIK3Cγ_h (P48736 whole entry): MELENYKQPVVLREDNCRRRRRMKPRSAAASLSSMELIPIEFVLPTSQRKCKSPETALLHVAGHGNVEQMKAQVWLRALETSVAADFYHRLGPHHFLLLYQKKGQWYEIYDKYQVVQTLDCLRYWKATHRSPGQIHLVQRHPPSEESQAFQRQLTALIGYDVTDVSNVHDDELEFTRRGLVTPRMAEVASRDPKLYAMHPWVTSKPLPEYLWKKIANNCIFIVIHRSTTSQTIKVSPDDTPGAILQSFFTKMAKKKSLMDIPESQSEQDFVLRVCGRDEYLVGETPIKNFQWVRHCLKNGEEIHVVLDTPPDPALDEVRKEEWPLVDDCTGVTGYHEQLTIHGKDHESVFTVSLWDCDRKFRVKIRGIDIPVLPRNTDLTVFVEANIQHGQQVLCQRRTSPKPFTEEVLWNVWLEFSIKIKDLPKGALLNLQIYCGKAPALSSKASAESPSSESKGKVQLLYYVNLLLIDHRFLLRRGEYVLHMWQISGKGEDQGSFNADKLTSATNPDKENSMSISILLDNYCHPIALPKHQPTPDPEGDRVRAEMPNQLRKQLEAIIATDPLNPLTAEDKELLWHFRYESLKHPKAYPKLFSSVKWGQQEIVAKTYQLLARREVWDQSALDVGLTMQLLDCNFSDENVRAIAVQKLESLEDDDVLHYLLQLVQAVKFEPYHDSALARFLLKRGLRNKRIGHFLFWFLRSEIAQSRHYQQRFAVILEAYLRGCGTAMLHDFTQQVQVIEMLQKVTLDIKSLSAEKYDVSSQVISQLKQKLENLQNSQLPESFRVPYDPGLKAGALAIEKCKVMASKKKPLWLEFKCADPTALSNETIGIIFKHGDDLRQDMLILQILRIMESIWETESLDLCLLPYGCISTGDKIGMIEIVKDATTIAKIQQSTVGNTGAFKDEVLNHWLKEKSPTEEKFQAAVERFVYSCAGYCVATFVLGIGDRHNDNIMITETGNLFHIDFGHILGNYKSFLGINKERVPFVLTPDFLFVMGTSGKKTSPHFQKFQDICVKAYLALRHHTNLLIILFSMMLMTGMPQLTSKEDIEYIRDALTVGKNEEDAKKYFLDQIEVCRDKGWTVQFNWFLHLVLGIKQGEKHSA
Experimental: as §1

MTOR_h = MTOR_h (Homo sapiens (Human), UniProt P42345); assay: KINOMEscan enzyme binding assay, MTOR; details: DiscoveRx
Experimental: as §1

[1] = tested on: Akt phosphorylated at Ser473 in PC-3 cells; assay: Cellular assay: phosphorylation of Akt (Ser473) in PC-3 cells, MSD ELISA; format: cell-based; details: 60 min incubation with compound, read-out: IC50 pAkt_S473
Experimental: (§2) Cellular activity of PI3Kβ inhibitors was determined by quantifying the phosphorylation of Akt in PC-3 cells. Akt phosphorylated at Ser473 and Thr308 were measured using an enzyme-linked immunosorbent assay (ELISA; Meso Scale Discovery (MSD), Gaithersburg, Md.) and specific primary antibodies from MSD.
(§3) On day 1, PC3 cells (ATCC # […]) were seeded into PerkinElmer MW96 plates at 25.000 cells per well, in 75 μl complete culture medium (DMEM (Dulbecco's Modified Eagle's Medium) high glucose, AQmedia™, D0819, Sigma-Aldrich) containing 10% heat inactivated FCS (Fetal Bovine Serum) and incubated at 37° C., 5% CO2 during 24 hours. On day 2, compound or DMSO (dimethyl sulfoxide) (0.3%) was added and cells were further incubated for 60 min at 37° C., 5% CO2 in a total volume of 100 μl of medium.
(§4) The phosphoprotein assay was executed according to vendor instructions in the Phospho-Akt (Ser473) Assay Whole Cell Lysate Kit (MSD # K15100D-3) and the Phospho-Akt (Thr308) Assay Whole Cell Lysate Kit (MSD # K151DYD-3) using the lysis, blocking and wash buffer provided.
(§5) Briefly, at the end of the cell treatment period, media were removed by aspiration and adherent cells were lysed in 50 μl ice-cold lysis buffer. MSD plates are supplied pre-coated with capture antibodies for Phospho-Akt (Ser473 and Thr308). After blocking, lysates from tissue culture plates were added and plates were washed. Then, a solution containing the detection antibody (anti-total Akt conjugated with an electrochemiluminescent compound-MSD Sulfo-tag label) was added. The signals were detected using an MSD SECTOR Imager 6000 and are proportional to the phospho-Akt titres.
(§6) Data were processed. The percentage of inhibition was plotted against the log concentration of test compounds, and the sigmoidal log concentration-effect curve of best fit was calculated by nonlinear regression analysis. From these concentration-response curves, the IC50 values were calculated. Five concentrations were used for curve fitting.

[2] = tested on: Akt phosphorylated at Thr308 in PC-3 cells; assay: Cellular assay: phosphorylation of Akt (Thr308) in PC-3 cells, MSD ELISA; format: cell-based; details: 60 min incubation with compound, read-out: IC50 pAkt_Thr308
Experimental: as §2, §3, §4, §5, §6

Sequence of PIK3Cα_h (P42336 whole entry): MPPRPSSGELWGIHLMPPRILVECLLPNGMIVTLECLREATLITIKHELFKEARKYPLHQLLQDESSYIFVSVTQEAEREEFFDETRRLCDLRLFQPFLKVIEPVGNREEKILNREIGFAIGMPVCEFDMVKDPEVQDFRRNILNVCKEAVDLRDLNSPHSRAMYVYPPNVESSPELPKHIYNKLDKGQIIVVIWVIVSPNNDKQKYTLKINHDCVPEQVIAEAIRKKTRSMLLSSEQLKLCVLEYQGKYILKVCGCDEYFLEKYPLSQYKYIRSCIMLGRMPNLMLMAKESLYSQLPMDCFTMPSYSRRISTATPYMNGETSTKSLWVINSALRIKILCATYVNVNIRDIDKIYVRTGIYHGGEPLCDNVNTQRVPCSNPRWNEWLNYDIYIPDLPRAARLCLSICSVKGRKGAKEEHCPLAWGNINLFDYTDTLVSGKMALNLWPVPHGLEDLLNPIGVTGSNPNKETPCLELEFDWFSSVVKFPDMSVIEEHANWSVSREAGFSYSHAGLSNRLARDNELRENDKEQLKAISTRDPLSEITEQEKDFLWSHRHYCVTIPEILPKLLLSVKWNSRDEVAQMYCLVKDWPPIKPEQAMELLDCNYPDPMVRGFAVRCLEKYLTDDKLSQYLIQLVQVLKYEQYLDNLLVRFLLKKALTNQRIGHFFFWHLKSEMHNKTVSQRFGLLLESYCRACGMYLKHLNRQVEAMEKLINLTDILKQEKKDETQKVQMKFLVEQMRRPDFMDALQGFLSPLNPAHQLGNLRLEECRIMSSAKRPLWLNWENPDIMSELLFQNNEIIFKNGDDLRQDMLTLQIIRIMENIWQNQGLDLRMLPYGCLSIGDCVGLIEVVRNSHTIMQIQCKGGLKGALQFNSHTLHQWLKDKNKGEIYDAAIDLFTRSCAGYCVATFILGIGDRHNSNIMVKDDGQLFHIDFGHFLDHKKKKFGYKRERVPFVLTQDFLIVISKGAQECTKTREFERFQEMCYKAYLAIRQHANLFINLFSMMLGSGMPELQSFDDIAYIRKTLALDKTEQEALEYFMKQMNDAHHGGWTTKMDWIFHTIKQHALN

Structure (SMILES)	Kd (PIK3Cα_h) [nM]	Kd (PIK3Cβ_h) [nM]	Kd (PIK3Cδ_h) [nM]	Kd (PIK3Cγ_h) [nM]	Kd (MTOR_h) [nM]	IC50 ([1]; Homo sapiens, PC-3, 1 h) [nM]	IC50 ([2]; Homo sapiens, PC-3, 1 h) [nM]	IC50 [1] [nM]	IC50 [2] [nM]
Cc1nc2c(-c3ncc[nH]3)cc(N3CCOCC3)nn2c1Nc1cccc(C(F)(F)F)c1C [Compound 34]	2240	3	81	6920	> 10000	~56	~32	–	–
Cc1nc2c(N)cc(N3CCOCC3)nn2c1Nc1cccc(C(F)(F)F)c1CNC(C)CO (centres unmarked) [Compound 55]	1120	0.9	9	12600	> 30200	10	7	–	–
Cc1c(Cc2c(CNCCS(C)(=O)=O)nc3c(N)cc(N4CCOCC4)nn23)cccc1C(F)(F)F [Compound 2]	8130	1.4	178	> 30200	23400	138	186	–	–
Cc1c(Cc2c(C(C)O)nc3c(-c4ncc[nH]4)cc(N4CCOCC4)nn23)cccc1C(F)(F)F (centres unmarked) [Compound 31]	2290	2.5	71	17000	> 10000	46	22	–	–
Cc1nc2c(-c3ccn[nH]3)cc(N3CCOCC3)nn2c1Cc1cccc(C(F)(F)F)c1C [Compound 8]	30200	31	891	14500	525	263	204	–	–
Cc1nc2c(N)cc(N3CCOCC3)nn2c1Nc1cccc(C(F)(F)F)c1CN1CCN(C)CC1 [Compound 58]	4270	0.4	20	12300	21400	21	17	–	–
Cc1nc2c(-c3c[nH]cn3)cc(N3CCOCC3)nn2c1Nc1cccc(F)c1C [Compound 50]	537	1.3	33	1260	776	60	38	–	–
Cc1nc2c(N)cc(N3CCOCC3)nn2c1Nc1cccc(C(F)(F)F)c1C [Compound 33]	5130	6	171	11400	20300	12	17	–	–
Cc1c(Cc2c(CO)nc3c(N)cc(N4CCOCC4)nn23)cccc1C(F)(F)F [Compound 14a]	> 30200	1.2	225	> 10000	6760	–	–	~46	38
Cc1c(Cc2c(CO)nc3c(-c4c[nH]cn4)cc(N4CCOC(C)C4)nn23)cccc1C(F)(F)F (centres unmarked) [Compound 25]	> 30200	200	> 30200	> 30200	1180	–	–	447	> 513
Cc1nc2c(N)cc(N3CCOCC3)nn2c1Nc1cccc(C(F)(F)F)c1CN1CCC(S(C)(=O)=O)CC1 [Compound 54]	16200	12	490	> 30200	> 30200	200	98	–	–
Cc1nc2c(C(=O)O)cc(N3CCOCC3)nn2c1Cc1cccc(C(F)(F)F)c1C [Compound 9]	1350	1.4	174	5250	12900	513	316	–	–
Cc1nc2c(N)cc(N3CCOCC3)nn2c1Nc1cccc(C(F)(F)F)c1CN1CC2(CCS2(=O)=O)C1 [Compound 53]	10000	5	73	19600	> 30200	~176	~87	–	–
Cc1nc2c(-c3ncc[nH]3)cc(N3CCOCC3)nn2c1Cc1cccc(C(F)(F)F)c1C [Compound 7]	> 3310	15	525	> 30200	> 10000	269	135	–	–
Cc1nc2c(-c3cnc[nH]3)cc(N3CCOCC3)nn2c1Nc1cccc2c1CNCC2 [Compound 42]	347	0.6	5	2290	1440	> 513	> 513	–	–
Cc1c(Cc2c(CF)nc3c(N)cc(N4CCOCC4)nn23)cccc1C(F)(F)F [Compound 17]	17000	3.3	427	15800	14100	81	~50	–	–
Cc1nc2c(N)cc(N3CCOCC3)nn2c1Cc1cccc(F)c1C1CCNCC1 [Compound 106]	2750	0.5	372	5010	> 30200	174	129	–	–
Cc1cccc(Nc2c(C)nc3c(N)cc(N4CCOCC4)nn23)c1C [Compound 39]	2570	1.1	31	8510	4900	34	~43	–	–

Second part, the compound after the results:

Kd (PIK3Cα_h) [nM]	Kd (PIK3Cβ_h) [nM]	Kd (PIK3Cδ_h) [nM]	Kd (PIK3Cγ_h) [nM]	Kd (MTOR_h) [nM]	IC50 ([1]; Homo sapiens, PC-3, 1 h) [nM]	IC50 ([2]; Homo sapiens, PC-3, 1 h) [nM]	IC50 [1] [nM]	IC50 [2] [nM]	Structure (SMILES)
9330	0.7	138	15100	> 30200	78	29	–	–	Nc1cc(N2CCOCC2)nn2c(Cc3cccc(C(F)(F)F)c3C3CCNCC3)c(CO)nc12 [Compound 104]
11700	12	355	8710	11500	158	115	–	–	Cc1nc2c(N)cc(N3CCOCC3)nn2c1Cc1cccc(F)c1C1CCN(CCO)CC1 [Compound 107]
11200	1.6	200	3720	912	79	40	–	–	Cc1c(F)cccc1Cc1c(CNCCO)nc2c(N)cc(N3CCOCC3)nn12 [Compound 97]
631	22	44	851	85	115	83	–	–	Cc1nc2c(-c3ccn[nH]3)cc(N3CCOCC3)nn2c1Nc1ccccc1N1CCOCC1 [Compound 89]
4170	2.2	42	20000	3160	138	96	–	–	Cc1nc2c(N)cc(N3CCOCC3)nn2c1Nc1cccc(F)c1CN1CCOCC1 [Compound 63]
> 30200	44	6030	> 30200	> 30200	209	~195	–	–	Cc1c(Cc2c(COC(=O)C(N)Cc3ccccc3)nc3c(N)cc(N4CCOCC4)nn23)cccc1C(F)(F)F (centres unmarked) [Compound 80]
12800	9	98	2900	22200	136	82	–	–	Cc1nc2c(N)cc(N3CCOCC3)nn2c1Cc1cccc2c1CNCC2 [Compound 109]
5370	15	56	24500	1510	186	151	–	–	Cc1nc2c(N)cc(N3CCOCC3)nn2c1Nc1ccccc1CN1CCOCC1 [Compound 69]
16600	18	1410	10500	5750	> 513	417	–	–	Cc1nc2c(N)cc(N3CCOCC3)nn2c1Cc1cccc(F)c1CO [Compound 94]
> 30200	141	1510	> 30200	> 30200	> 513	> 513	–	–	CC(CO)NCc1c(F)cccc1Cc1c(CO)nc2c(N)cc(N3CCOCC3)nn12 (centres unmarked) [Compound 102]
20900	8	34	> 30200	17000	166	112	–	–	Cc1nc2c(N)cc(N3CCOCC3)nn2c1Nc1cccc2c1CCNC2 [Compound 64]
